Assay results from US20160160267A1, “COMPOSITION FOR EVALUATING OR PREDICTING PATIENTS THERAPEUTIC RESPONSE TO METHORMIN” (SNU R&DB FOUNDATION, priority 2013, published 2016).

Legend:
[1] = system: MCP-1 (Monocyte chemoattractant protein-1); experiment: Expression of MCP-1 in epididymal adipose tissue, quantitative PCR relative to GAPDH; type: in vivo, mouse (C57BL/6); details: male, metformin during high-fat diet, P=0.008
Method: (§1) FIG. 4a to FIG. 5b comparatively analyze the amount of gene expression of internal control GAPDH and biomarkers using relative quantification method (2^−ΔΔCt(ΔΔCt=(Ct.Target−Ct.GAPDH)Group1−(Ct.Target−Ct.GAPDH)Group2)). Statistical significance is assessed by Mann-Whitney U Test. For quantification, SYBR qPCR was repeatedly conduced three times.
(§2) Basically, body weight and fasting glucose were confirmed once a week. To confirm impaired glucose tolerance, oral glucose tolerance test (OGTT) was conducted. And, total cholesterol, high-density lipoprotein (HDL), low-density lipoprotein (LDL) were analyzed in serum, and insulin concentration in blood was measured using flow cytometry. To grasp the expression degree of metabolic and inflammatory factors, liver, epididymal adipose tissue, small intestine were homogenized to extract total RNA, which was quantitatively analyzed by polymerase chain reaction (PCR). In the liver, AMPKα1 (AMP-activated protein kinase alpha 1), PPARα (Peroxisome proliferator-activated eceptor alpha), GLUT2 (Glucose transporter 2), G6Pase (Glucose 6-phosphatase) were measured; in the adipose tissue, adiponectin, leptin, MCP-1 (Monocyte chemoattractant protein-1), TNFα (Tumor necrosis factor alpha) IL-6 (Interleukin-6) were measured; and in the small intestine, MUC2 and MUC5 (Mucin genes) were measured. […]

[2] = system: AMPKα1 (AMP-activated protein kinase alpha 1); experiment: Expression of AMPKα1 in liver, quantitative PCR relative to GAPDH; type: in vivo, mouse (C57BL/6); details: female, metformin during high-fat diet, P=0.023
Method: as §1, §2

[3] = system: G6Pase (Glucose 6-phosphatase); experiment: Expression of G6Pase in liver, quantitative PCR relative to GAPDH; type: in vivo, mouse (C57BL/6); details: male, metformin during high-fat diet
Method: as §1, §2

[4] = system: rumen microorganism communities; experiment: Analysis of rumen microbiome in feces samples (16S rRNA V2-V3 pyrosequencing, UniFrac, PCoA, LEfSe); type: in vivo, mouse (C57BL/6)
Method: Total genome DNA of bacteria in the feces sample was extracted using a kit. The V2 region and the V3 region of 16S rRNA gene were amplified through PCR using bar coded universal primer as described in Table 3 and Table 4, and pyrosequencing was conducted using GS-FLX system. For the secured nucleotide sequence, data was analyzed using QIIME (Quantitative Insights Into Microbial Ecology) 1.5.0 (http://qiime.sourceforge.net). Before the sequence analysis, noise removal of the sequence data set was conducted, and low quality sequence less than 200 bp was removed. To the nucleotide sequence, OUT (Operational taxonomic units) was assigned based on 97% analogous level to conduct system analysis. For the nucleotide sequence obtained from each feces sample, UniFrac, PCoA (Principal Coordinate Analysis), LEfSe (LDA Effect Size) analysis were conducted for comparative analysis. And, based on the KEGG (Kyoto Encyclopedia of Genes and Genomes) pathway data from microbiome, PICRUSt (Phylogenetic Investigation of Communities by Reconstruction of Unobserved States) was conducted to predict a specifically increasing metabolic pathway.

[5] = Tissue inspection (tissue weights, H&E staining, steatosis); details: metformin during high-fat diet, compared to high-fat diet group
Text: Male and female C57BL/6 species of the same age of the week were purchased from Orientbio. […] Epididymis adipose tissue, liver, small intestine, pancreas, and blood were extracted, and among them, liver, small intestine, and pancreas were fixed to 4% paraformaldehyde to conduct hematoxylin and eosin (H&E) staining. Briefly, tissue was cut to 4 μm, stained with alum haematoxylin and rinsed with water flow. Thereafter, the colour was changed with 0.3% acid alcohol, followed by additional staining with eosin, dehydrating and fixing. The degree of steatosis and inflammation of the tissue was read by pathologist.

[6] = system: GLUT2 (Glucose transporter 2); experiment: Expression of GLUT2 in liver, quantitative PCR relative to GAPDH; type: in vivo, mouse (C57BL/6); details: female, metformin during high-fat diet, P=0.007
Method: as §1, §2

[7] = Metabolism-related index (body weight, fasting glucose, serum total cholesterol, HDL) in high-fat diet mouse; type: in vivo, mouse (C57BL/6); details: high-fat diet mice
Method: Basically, body weight and fasting glucose were confirmed once a week. To confirm impaired glucose tolerance, oral glucose tolerance test (OGTT) was conducted. And, total cholesterol, high-density lipoprotein (HDL), low-density lipoprotein (LDL) were analyzed in serum, and insulin concentration in blood was measured using flow cytometry. To grasp the expression degree of metabolic and inflammatory factors, liver, epididymal adipose tissue, small intestine were homogenized to extract total RNA, which was quantitatively analyzed by polymerase chain reaction (PCR). In the liver, AMPKα1 (AMP-activated protein kinase alpha 1), PPARα (Peroxisome proliferator-activated eceptor alpha), GLUT2 (Glucose transporter 2), G6Pase (Glucose 6-phosphatase) were measured; in the adipose tissue, adiponectin, leptin, MCP-1 (Monocyte chemoattractant protein-1), TNFα (Tumor necrosis factor alpha) IL-6 (Interleukin-6) were measured; and in the small intestine, MUC2 and MUC5 (Mucin genes) were measured. For comparative analysis of the expression degree, relative quantification using housekeeping gene GAPDH was applied, and statistical significance was confirmed with Mann-Whitney U test. As the primer for MUC5AC, QuantiTect® Primer Assay (Cat. no.: QT01161104, Qiagen) was used.

[8] = system: PPARα; experiment: Expression of PPARα in liver, quantitative PCR relative to GAPDH; type: in vivo, mouse (C57BL/6); details: female, metformin during high-fat diet, P=0.008
Method: as §1, §2

[9] = system: MUC5; experiment: Expression of mucin gene MUC5 in small intestine; type: in vivo, mouse (C57BL/6); details: female, after administration of metformin
Method: as §1, §2

[10] = system: TNFα (Tumor necrosis factor alpha); experiment: Expression of TNFα in epididymal adipose tissue, quantitative PCR relative to GAPDH; type: in vivo, mouse (C57BL/6); details: female, metformin during high-fat diet, P=0.001
Method: as §1, §2

[11] = system: MUC2; experiment: Expression of mucin gene MUC2 in small intestine; type: in vivo, mouse (C57BL/6); details: female, after administration of metformin
Method: as §1, §2

[12] = system: leptin; experiment: Expression of leptin in epididymal adipose tissue, quantitative PCR relative to GAPDH; type: in vivo, mouse (C57BL/6); details: male, metformin during high-fat diet, P=0.004
Method: as §1, §2

[13] = after administration of metformin during high-fat diet
[14] = 10 weeks after metformin administration
[15] = after administration of metformin (300 mg/kg daily, oral)

## CN(C)C(=N)NC(=N)N [metformin, N,N-Dimethylimidodicarbonimidic diamide]
[1]
  MCP-1 expression in epididymal adipose tissue: increased
[2]
  AMPKα expression in liver: decreased
[3]
  G6Pase expression in liver: significantly decreased
[4]; [13]
  proportion of phylum Proteobacteria: 2.1±2.8%
  proportion of phylum Verrucomicrobia: 12.4±5.3%
[4]; high-fat diet, after administration of metformin
  proportion of phylum Bacteroidetes: 77.5±8.7%
[4]; metformin administration during high-fat diet
  microbial diversity in feces: decreased
[4]; metformin administration during normal diet
  microbial diversity in feces: did not cause any change in diversity
[4]; metformin during high-fat diet
  Akkermansia abundance, at species level: significantly increased
  Bacteroides abundance, at species level: significantly increased
  relative bacterial abundance by LDA scores, genus Akkermansia: increased
  relative bacterial abundance by LDA scores, genus Blautia: increased
  relative bacterial abundance by LDA scores, genus Clostridium: decreased
  relative bacterial abundance by LDA scores, genus Shigella: increased
[4]; metformin during high-fat diet, versus difference of the diet-change group (HFD-ND) to HFD only
  UniFrac distance to the group treated with high-fat diet only: larger
[4]; metformin during normal diet
  relative bacterial abundance, Alistipes: increased
  relative bacterial abundance, Lactobacillus iners: relatively decreased
  relative bacterial abundance, genus Akkermansia: significantly increased
  relative bacterial abundance, genus Clostridium: significantly increased
[5]
  liver steatosis: significant difference
  weight of adipose tissue: significantly decreased
  weight of liver: significantly decreased
[6]
  GLUT2 expression in liver: decreased
[7]; [14]
  high density lipoprotein (HDL): significantly decreased
  total cholesterol: significantly decreased
[7]; [15]
  blood glucose (fasting glucose): significantly decrease
  body weight: significantly decrease
[8]
  PPARα expression in liver: increased
[9]
  expression degree of MUC5 in small intestine: significantly increased
[10]
  TNFα expression in epididymal adipose tissue: significantly decreased
[11]
  expression degree of MUC2 in small intestine: significantly increased
[12]
  leptin expression in epididymal adipose tissue: increased
